Laboratory results from publication PMC10799085, “A miniaturized mode-of-action profiling platform enables high throughput characterization of the molecular and cellular dynamics of EZH2 inhibition” (Scientific Reports, 2024).
Where two headings read alike, the source gives them in different places.

Experiments:
PRC2/EZH2Y641N [1] = biological target: T1, PRC2/EZH2Y641N (Homo sapiens, UniProt Q15910, Y641N); experiment: Kinetic probe competition assay (kPCA), TR-FRET; assay type: binding
T1 construct: Synthetic cDNA encoding N-terminal 6His-tagged full length EZH2^Y641N; 6His (N); made in house; host or cells: Sf9 insect cells (baculovirus co-infection)
Description: Biotinylated PRC2 complexes and the fluorescent probe used in TR-FRET assays were generated as described in the supplementary methods section.

PRC2/EZH2Y641N [2] = biological target: T1, PRC2/EZH2Y641N; experiment: Equilibrium probe competition assay (ePCA), TR-FRET; assay type: binding
KARPAS-422 cells = experiment: Cellular proliferation assay (AlamarBlue, 144 h); assay type: cell-based; details: Homo sapiens, KARPAS-422, 144 h, read-out: KARPAS (6-day) Anti-proliferation IC50 (M)
Experimental: Cell viability was determined by means of the AlamarBlue® reagent (Thermo Fisher Scientific) following instructions from the manufacturer. […] Anti-proliferative IC50s were calculated by fitting the normalized AlamarBlue® fluorescence values to a 4-parameter logistic equation using the Electronic Notebook (ELN) software from IDBS.

PRC2/EZH2+/+ = biological target: T2, PRC2/EZH2+/+ (Homo sapiens, UniProt Q15910); experiment: Equilibrium probe competition assay (ePCA), TR-FRET; assay type: binding
T2 construct: purchased Active Motif

PRC2/EZH2Y641N [3] = biological target: T1, PRC2/EZH2Y641N; experiment: Scintillation proximity assay (SPA) of H3K27 methylation; assay type: biochemical
Experimental: (§1) Assay-ready plates containing 50 nl of compound dilutions and DMSO controls were filled with 2.5 µL enzyme solution and pre-incubated for 15 min. […] Experiments were also performed without pre-incubation of enzyme and compounds. In this case, the substrate solution was added before enzyme. The reaction was stopped using 1.6 µg/µl streptavidin beads (Perkin Elmer) and 700 µM of SAM (Perkin Elmer). The plates were sealed with transparent foil.
(§2) For equilibrium binding competition (ePCA) and SPA enzyme inhibition assays, raw data import, quality control, normalization, and curve fitting to a 4-parameter logistic equation for IC50 determination were performed using the Genedata Screener® software (Genedata AG). ePCA Ki values were either calculated using the Cheng-Prussof equation[68] or with the GraphPad Prism model “One-site—Fit Ki”.

PRC2/EZH2Y111D = biological target: T3, PRC2/EZH2Y111D (Homo sapiens, UniProt Q15910, Y111D); experiment: as above; assay type: biochemical
T3 construct: N-terminal 6His-tagged full length EZH2^Y641N, EZH2^Y111L, EZH2^Y111D; 6His (N); made in house; host or cells: Sf9 insect cells (baculovirus co-infection)
Experimental: as §1, §2

PRC2/EZH2Y641N+Y661D = biological target: T4, PRC2/EZH2Y641N+Y661D (Homo sapiens, UniProt Q15910, Y641N/Y661D); experiment: as above; assay type: biochemical
T4 construct: N-terminal 6His-tagged full length EZH2^Y641N, EZH2^Y111L, EZH2^Y111D, EZH2^Y641N, Y661DEZH2, EZH1; 6His (N); made in house; host or cells: Sf9 insect cells (baculovirus co-infection)
Experimental: as §1, §2

[4] = EZH2Y641N (+ H3K27me3), RT sheet
[5] = EZH2Y641N (- H3K27me3), sheet ePCA&kPCA RT

In the case of Cc1cc(C)c(CN2CCc3c(Cl)cc(-c4c(C)noc4C)c(Cl)c3C2=O)c(=O)[nH]1 [Compound 14], the “Kinetic Efficiency” value (PRC2/EZH2Y641N [1]; EZH2Y641N (+ H3K27me3)) is reported as 2.02E-02, the koff (PRC2/EZH2Y641N [1]; [4]) is reported as 0.000921 s⁻¹ and the kon (PRC2/EZH2Y641N [1]; [4]) is reported as 1.28e+06 M⁻¹ s⁻¹. The “Calculated RT” value (PRC2/EZH2Y641N [1]; EZH2Y641N (+ H3K27me3)) was 0.16 h, the Kd (PRC2/EZH2Y641N [1]; EZH2Y641N (+ H3K27me3), kinetic, RT sheet) was 0.68 nM and the “Kinetic Efficiency” value (PRC2/EZH2Y641N [1]; EZH2Y641N (- H3K27me3)) was 2.35E-02. The “Calculated RT” value (PRC2/EZH2Y641N [1]; EZH2Y641N (- H3K27me3)) was 0.19 h, the Kd (PRC2/EZH2Y641N [1]; [5]) was 2.83 nM and the koff (PRC2/EZH2Y641N [1]; [5]) was 0.00136 s⁻¹. The kon (PRC2/EZH2Y641N [1]; [5]) was 496000 M⁻¹ s⁻¹, the “Ligand Efficiency” value (PRC2/EZH2Y641N [2]; EZH2Y641N (+ H3K27me3)) was 1.6 and the Ki (PRC2/EZH2Y641N [2]; EZH2Y641N (+ H3K27me3), equilibrium, RT sheet) was 1.35 nM. For the same molecule, the “Ligand Efficiency” value (PRC2/EZH2Y641N [2]; EZH2Y641N (- H3K27me3)) was 1.5, the Ki (PRC2/EZH2Y641N [2]; [5]) was 2.99 nM and the IC50 (KARPAS-422 cells) was 6.4e-07 M. For the same molecule, the “Ligand Efficiency” value (PRC2/EZH2+/+; EZH2+/+ (+ H3K27me3)) was 1.6, the Ki (PRC2/EZH2+/+; EZH2+/+ (+ H3K27me3), sheet ePCA&kPCA RT, read-out: Equilibrium Ki) was 0.907 nM and the “Ligand Efficiency” value (PRC2/EZH2+/+; EZH2+/+ (- H3K27me3)) was 1.5. The Ki (PRC2/EZH2+/+; EZH2+/+ (- H3K27me3), 5 °C, read-out: Ki (Equilibrium)) was 1.1 nM, the Ki (PRC2/EZH2+/+; EZH2+/+ (- H3K27me3), 15 °C, read-out: Ki (Equilibrium)) was 0.81 nM and the Ki (PRC2/EZH2+/+; EZH2+/+ (- H3K27me3), 30 °C, read-out: Ki (Equilibrium)) was 1.96 nM. It also gave a Ki (PRC2/EZH2+/+; EZH2+/+ (- H3K27me3), 37 °C, read-out: Ki (Equilibrium)) of 2.3 nM, a Ki (PRC2/EZH2+/+; EZH2+/+ (- H3K27me3), sheet ePCA&kPCA RT, read-out: Equilibrium Ki) of 1.47 nM and an IC50 (PRC2/EZH2Y641N [3]; 0' enzyme:inhibitor pre-incubation, read-out: SPA Mean IC50 (M) - 0' enzyme:inhibitor pre-incubation hEZH2Y641N) of 1.5e-08 M. For the same molecule, the IC50 (PRC2/EZH2Y641N [3]; 15' enzyme:inhibitor pre-incubation, read-out: SPA Mean IC50 (M) - 15' enzyme:inhibitor pre-incubation EZH2Y641N) was 1.1e-08 M, the IC50 (PRC2/EZH2Y641N [3]; 60' enzyme:inhibitor pre-incubation, read-out: SPA Mean IC50 (M) - 60' enzyme:inhibitor pre-incubation EZH2Y641N) was 1.2e-08 M and the “Ligand Efficiency - 0' enzyme:inhibitor pre-incubation hEZH2Y641N” value (PRC2/EZH2Y641N [3]; from SPA pIC50 (1.4*pIC50 / atom count), 0' pre-incubation) was 1.4. For the same molecule, the “Ligand Efficiency - 15' enzyme:inhibitor pre-incubation EZH2Y641N” value (PRC2/EZH2Y641N [3]; from SPA pIC50 (1.4*pIC50 / atom count), 15' pre-incubation) was 1.4, the “Ligand Efficiency - 60' enzyme:inhibitor pre-incubation EZH2Y641N” value (PRC2/EZH2Y641N [3]; from SPA pIC50 (1.4*pIC50 / atom count), 60' pre-incubation) was 1.4 and the “Ligand Efficiency - 0' enzyme:inhibitor pre-incubation EZH2Y111D” value (PRC2/EZH2Y111D) was 0.9. The “Ligand Efficiency - 15' enzyme:inhibitor pre-incubation EZH2Y111D” value (PRC2/EZH2Y111D) was 0.9, the “Ligand Efficiency - 60' enzyme:inhibitor pre-incubation EZH2Y111D” value (PRC2/EZH2Y111D) was 0.857 and the IC50 (PRC2/EZH2Y111D; 0' enzyme:inhibitor pre-incubation, read-out: SPA Mean IC50 (M) - 0' enzyme:inhibitor pre-incubation EZH2Y111D) was 1.3e-05 M. The IC50 (PRC2/EZH2Y111D; 15' enzyme:inhibitor pre-incubation, read-out: SPA Mean IC50 (M) - 15' enzyme:inhibitor pre-incubation EZH2Y111D) was 8.5e-06 M, the IC50 (PRC2/EZH2Y111D; 60' enzyme:inhibitor pre-incubation, read-out: SPA Mean IC50 (M) - 60' enzyme:inhibitor pre-incubation EZH2Y111D) was 1.3e-05 M and the “Ligand Efficiency - 0' enzyme:inhibitor pre-incubation EZH2Y641N+Y661D” value (PRC2/EZH2Y641N+Y661D) was 1.0. The “Ligand Efficiency - 15' enzyme:inhibitor pre-incubation EZH2Y641N+Y661D” value (PRC2/EZH2Y641N+Y661D) was 1.0, the “Ligand Efficiency - 60' enzyme:inhibitor pre-incubation EZH2Y641N+Y661D” value (PRC2/EZH2Y641N+Y661D) was 1.0 and the IC50 (PRC2/EZH2Y641N+Y661D; 0' enzyme:inhibitor pre-incubation, read-out: SPA Mean IC50 (M) - 0' enzyme:inhibitor pre-incubation EZH2Y641N+Y661D) was 1.4e-06 M. It also gave an IC50 (PRC2/EZH2Y641N+Y661D; 15' enzyme:inhibitor pre-incubation, read-out: SPA Mean IC50 (M) - 15' enzyme:inhibitor pre-incubation EZH2Y641N+Y661D) of 1.1e-06 M.
